# Assay results: US10098883B2, “(Aza)pyridopyrazolopyrimidinones and indazolopyrimidinones and their use” (BAYER PHARMA AKTIENGESELLSCHAFT, priority 2013, dated 2018)
# Where a name gives a salt, the structure may show the parent alone.
# System: clot lysis (fibrinolysis) in human citrated plasma, tPA-induced
# Assay: Plasma-based clot lysis assay (5%)
# Type: biochemical
# Conditions: diluted human citrated plasma (platelet-poor, 5%), fibrinogen 3 μM, CaCl2 10 mM, tPA 0.2 nM, 37° C., OD 405 nm
# Procedure, shortened: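 Compounds in acetic acid/DMSO added to 5% platelet-poor human citrated plasma supplemented with 3 μM fibrinogen, in 20 mM HEPES, 150 mM NaCl, 0.01% Brij, pH 7. Clotting and lysis started with 10 mM CaCl2 plus 0.2 nM tPA at 37 °C and followed kinetically by OD at 405 nm. IC50 derived against blank-control time course.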
row,Compound,IC50 [µM]
1,"O=c1cc(C2CCNCC2)n2nc3cccc(-c4ccc(C(F)(F)F)cc4)c3c2[nH]1 [Example 55, 4-(Piperidin-4-yl)-10-[4-(trifluoromethyl)phenyl]pyrimido[1,2-b]indazol-2(1H)-one hydrochloride]",0.014
2,"Cc1ccc2nn3c(C4CCNCC4)cc(=O)[nH]c3c2c1Br [Example 74, 10-Bromo-9-methyl-4-(piperidin-4-yl)pyrimido[1,2-b]indazol-2(1H)-one hydrochloride]",0.015
3,"O=c1cc(C2CCNCC2)n2nc3cnccc3c2[nH]1 [Example 29, 4-(Piperidin-4-yl)pyrido[3′,4′:3,4]pyrazolo[1,5-a]pyrimidin-2(1H)-one hydrochloride]",0.028
4,"O=c1cc(C2CCNCC2)n2nc3c(F)cccc3c2[nH]1 [Example 28, 7-Fluoro-4-(piperidin-4-yl)pyrimido[1,2-b]indazol-2(1H)-one hydrochloride]",0.033
5,"Cc1cc(Cl)c2c(c1)nn1c(C3CCNCC3)cc(=O)[nH]c21 [Example 79, 10-Chloro-8-methyl-4-(piperidin-4-yl)pyrimido[1,2-b]indazol-2(1H)-one hydrochloride]",0.011
6,"Cn1cc(-c2cccc3nn4c(C5CCNCC5)cc(=O)[nH]c4c23)cn1 [Example 87, 10-(1-Methyl-1H-pyrazol-4-yl)-4-(piperidin-4-yl)pyrimido[1,2-b]indazol-2(1H)-one hydrochloride]",0.025
7,"CCC(C)c1cccc2nn3c(C4CCNCC4)cc(=O)[nH]c3c12 (stereo not drawn) [Example 72, 10-sec-Butyl-4-(piperidin-4-yl)pyrimido[1,2-b]indazol-2(1H)-one hydrochloride]",0.014
8,"CCOc1ccccc1-c1cccc2nn3c(C4CCNCC4)cc(=O)[nH]c3c12 [Example 93, 10-(2-Ethoxyphenyl)-4-(piperidin-4-yl)pyrimido[1,2-b]indazol-2(1H)-one hydrochloride]",0.028

# Same assay, conditions: diluted human citrated plasma (platelet-poor, 5%), fibrinogen 3 μM, CaCl2 10 mM, tPA 0.2 nM, 37° C., OD 405 nm; hydrochloride
row,Compound,IC50 [µM]
1,"O=c1cc(C2CCNCC2)n2nc3cccc(Br)c3c2[nH]1 [Example 10, 10-Bromo-4-(piperidin-4-yl)pyrimido[1,2-b]indazol-2(1H)-one hydrochloride]",0.034
